Laboratory results published in patent publication US9902696B2, “1,4-substituted piperidine derivatives” (Cephalon, Inc., priority 2015, dated 2018).
Counter-ions that a name gives are not always drawn. Like-named read-outs stand apart in the source and are kept apart here.

Biological target: T1, recombinant human baculovirus-expressed GST-tagged FASN (Homo sapiens, UniProt P49327)
T1 construct: GST
Test: FASN enzyme activity assay, fluorescence-based detection of CoA with CPM
Assay type: biochemical
Settings: 5 nM FASN, 150 μM NADPH, 10 μM acetyl-CoA, 25 μM malonyl-CoA, 90 minutes incubation
Outline: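 CoA product reacted with thiol-reactive CPM (diluted to 50 μM in 70% ethanol), read at 390/530 nm after 30 min. Preceding reaction: 90 min, 5 nM recombinant GST-FASN, 150 μM NADPH, 10 μM acetyl-CoA, 25 μM malonyl-CoA, pH 7.5 HEPES, 0.5% DMSO. IC50s fitted by nonlinear sigmoidal regression.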

[1] = read-out: IC50 data for Compounds of Formulae I-V/V(a): Activity
[2] = read-out: IC50 data for Additional Compounds of Formulae I-V(a): Activity

T1 sequence (P49327 whole entry): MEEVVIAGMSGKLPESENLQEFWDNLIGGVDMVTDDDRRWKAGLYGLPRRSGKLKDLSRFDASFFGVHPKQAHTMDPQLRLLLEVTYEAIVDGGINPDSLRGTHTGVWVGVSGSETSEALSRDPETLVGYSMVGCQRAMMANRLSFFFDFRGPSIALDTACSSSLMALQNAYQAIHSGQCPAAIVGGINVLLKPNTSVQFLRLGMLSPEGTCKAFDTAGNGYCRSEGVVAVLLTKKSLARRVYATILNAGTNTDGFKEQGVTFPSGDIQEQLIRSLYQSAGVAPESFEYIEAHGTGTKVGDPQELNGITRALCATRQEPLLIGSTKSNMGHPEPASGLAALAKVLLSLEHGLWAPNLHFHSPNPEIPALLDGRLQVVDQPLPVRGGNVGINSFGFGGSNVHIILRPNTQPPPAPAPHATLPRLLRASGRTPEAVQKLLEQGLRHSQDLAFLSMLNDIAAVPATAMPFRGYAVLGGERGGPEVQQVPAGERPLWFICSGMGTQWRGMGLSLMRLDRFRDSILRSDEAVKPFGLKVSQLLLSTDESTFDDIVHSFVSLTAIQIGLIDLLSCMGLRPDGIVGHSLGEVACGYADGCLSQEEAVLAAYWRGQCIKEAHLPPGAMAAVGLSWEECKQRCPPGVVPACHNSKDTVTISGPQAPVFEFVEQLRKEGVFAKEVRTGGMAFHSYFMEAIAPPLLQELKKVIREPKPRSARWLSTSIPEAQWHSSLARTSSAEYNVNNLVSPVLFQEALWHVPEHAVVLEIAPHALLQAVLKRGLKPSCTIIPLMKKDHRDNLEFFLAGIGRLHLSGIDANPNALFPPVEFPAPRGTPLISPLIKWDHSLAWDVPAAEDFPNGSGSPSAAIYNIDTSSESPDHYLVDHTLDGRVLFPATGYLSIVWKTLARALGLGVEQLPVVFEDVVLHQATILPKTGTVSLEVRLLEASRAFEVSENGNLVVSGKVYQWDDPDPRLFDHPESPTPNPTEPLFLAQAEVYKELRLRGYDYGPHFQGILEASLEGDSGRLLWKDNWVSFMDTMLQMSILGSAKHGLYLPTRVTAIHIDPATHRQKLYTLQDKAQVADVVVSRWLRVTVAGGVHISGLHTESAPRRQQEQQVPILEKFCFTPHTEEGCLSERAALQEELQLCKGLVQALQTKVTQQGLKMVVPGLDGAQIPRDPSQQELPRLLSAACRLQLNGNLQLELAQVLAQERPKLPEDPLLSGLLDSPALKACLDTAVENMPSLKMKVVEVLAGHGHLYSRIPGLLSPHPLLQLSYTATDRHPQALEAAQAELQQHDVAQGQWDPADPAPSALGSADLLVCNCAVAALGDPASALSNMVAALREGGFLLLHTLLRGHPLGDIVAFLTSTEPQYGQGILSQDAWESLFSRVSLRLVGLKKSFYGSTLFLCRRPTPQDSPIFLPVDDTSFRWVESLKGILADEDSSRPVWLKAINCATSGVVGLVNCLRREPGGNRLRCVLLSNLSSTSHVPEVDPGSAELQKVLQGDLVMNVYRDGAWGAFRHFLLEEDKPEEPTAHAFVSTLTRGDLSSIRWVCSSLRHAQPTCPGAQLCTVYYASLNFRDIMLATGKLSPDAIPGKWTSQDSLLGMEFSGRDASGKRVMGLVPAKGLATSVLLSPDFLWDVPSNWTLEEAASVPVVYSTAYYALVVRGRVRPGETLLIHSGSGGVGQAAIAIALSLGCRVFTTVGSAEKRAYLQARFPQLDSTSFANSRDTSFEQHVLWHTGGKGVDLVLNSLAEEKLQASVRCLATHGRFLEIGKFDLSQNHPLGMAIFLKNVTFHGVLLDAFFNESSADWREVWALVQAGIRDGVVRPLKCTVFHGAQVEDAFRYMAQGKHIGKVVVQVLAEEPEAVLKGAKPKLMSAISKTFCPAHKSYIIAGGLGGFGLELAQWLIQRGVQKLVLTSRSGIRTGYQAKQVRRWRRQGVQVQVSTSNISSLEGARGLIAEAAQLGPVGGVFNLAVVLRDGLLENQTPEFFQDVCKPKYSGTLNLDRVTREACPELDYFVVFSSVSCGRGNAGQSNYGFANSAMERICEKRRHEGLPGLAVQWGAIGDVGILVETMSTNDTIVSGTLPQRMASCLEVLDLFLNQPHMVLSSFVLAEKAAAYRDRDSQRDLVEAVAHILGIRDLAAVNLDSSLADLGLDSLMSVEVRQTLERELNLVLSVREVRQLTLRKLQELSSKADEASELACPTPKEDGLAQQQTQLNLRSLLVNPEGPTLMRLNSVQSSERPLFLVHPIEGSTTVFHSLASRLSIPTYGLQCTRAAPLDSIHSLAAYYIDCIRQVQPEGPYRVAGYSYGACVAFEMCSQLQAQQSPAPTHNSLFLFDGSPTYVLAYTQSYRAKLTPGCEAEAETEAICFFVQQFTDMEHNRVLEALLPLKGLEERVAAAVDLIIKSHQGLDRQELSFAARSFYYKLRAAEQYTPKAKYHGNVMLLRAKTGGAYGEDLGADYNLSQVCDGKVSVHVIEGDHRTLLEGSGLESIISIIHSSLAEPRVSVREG

CCC(=O)N1CCC(Oc2cccc(-c3cnc4ccccc4c3)c2)CC1 [Example 496, 1-[4-(3-Quinolin-3-yl-phenoxy)-piperidin-1-yl]-propan-1-one]
IC50 [1]: 1000 to 10000 nM

O=C(C1CCCC1)N1CCC(Oc2ccc(-c3cnc4ccccc4c3)cc2)CC1 [Example 102, Cyclopentyl-[4-(4-quinolin-3-yl-phenoxy)-piperidin-1-yl]-methanone, 2HCl]
IC50 [1]: 100 to 999 nM

Cc1ccc(C)c(C(=O)N2CCC(Oc3ccc(-c4cnc5ccccc5c4)cc3)CC2)c1 [Example 128, (2,5-Dimethylphenyl)-[4-(4-quinolin-3-yl-phenoxy)-piperidin-1-yl]-methanone, HCl]
IC50 [1]: 1000 to 10000 nM

Cc1c(-c2ccc(OC3CCN(C(=O)C4(O)CC4)CC3)cc2)ccc2nccn12 [Example 309, (1-Hydroxycyclopropyl)-{4-[4-(5-methyl-imidazo[1,2-a]pyridin-6-yl)-phenoxy]-piperidin-1-yl}-methanone]
IC50 [1]: 1 to 99 nM

CCC(=O)N1CCC(Oc2ccc(-c3cc4ccccc4nc3Cl)cc2)CC1 [Example 16, 1-{4-[4-(2-Chloroquinolin-3-yl)-phenoxy]-piperidin-1-yl}-propan-1-one]
IC50 [1]: 1000 to 10000 nM

COCCCOc1c(-c2ccc(OC3CCN(C(=O)[C@H]4CCCO4)CC3)cc2)ccc2cccnc12 [Example 187, [4-[4-[8-(3-Methoxypropoxy)-7-quinolyl]phenoxy]-1-piperidyl]-[(2R)-tetrahydrofuran-2-yl]methanone, HCl]
IC50 [1]: 1 to 99 nM

CCC(=O)N1CCC(Oc2ccc(-c3cnc4ccccc4c3)cc2OC)CC1 [Example 196, 1-[4-(2-Methoxy-4-quinolin-3-yl-phenoxy)-piperidin-1-yl]-propan-1-one]
IC50 [1]: 1000 to 10000 nM

Cc1c(-c2ccc(OC3CCN(C(=O)NCC4CCC4)CC3)cc2)ccc2cccnc12 [Example 560, N-(Cyclobutylmethyl)-4-[4-(8-methyl-7-quinolyl)phenoxy]piperidine-1-carboxamide]
IC50 [2]: 100 to 999 nM

Cc1c(-c2ccc(OC3CCN(C(=O)[C@H]4CC4(C)C)CC3)cc2)ccc2cccnc12 [Example 321, ((S)-2,2-Dimethylcyclopropyl)-{4-[4-(8-methyl-quinolin-7-yl)-phenoxy]-piperidin-1-yl}-methanone]
IC50 [1]: 100 to 999 nM

O=C([C@H]1CCCO1)N1CCC(Oc2ccc(-c3ccc4cccnc4c3NCCN3CCCC3)cc2)CC1 [Example 334, (4-{4-[8-(2-Pyrrolidin-1-yl-ethylamino)-quinolin-7-yl]-phenoxy}-piperidin-1-yl)-(R)-tetrahydrofuran-2-yl-methanone]
IC50 [1]: 100 to 999 nM

CCC(=O)N1CCC(Oc2ccc(-c3ccc4cccnc4c3C)cc2)CC1 [Example 36]
IC50 [1]: 1 to 99 nM

O=C([C@H]1CCCO1)N1CCC(Oc2ccc(-c3ccc4cnccc4c3)cc2)CC1 [Example 467, [4-[4-(6-Isoquinolyl)phenoxy]-1-piperidyl]-[(2R)-tetrahydrofuran-2-yl]-methanone HCl]
IC50 [1]: 1 to 99 nM

Cc1c(-c2ccc(OC3CCN(C(=O)C4(C#N)CC4)CC3)cc2)ccc2cccnc12 [Example 319, 1-{4-[4-(8-Methylquinolin-7-yl)-phenoxy]-piperidine-1-carbonyl}-cyclopropanecarbonitrile]
IC50 [1]: 1000 to 10000 nM

CCC(=O)N1CCC(Oc2ccc(-c3ccc4cnn(C)c4c3)cc2)CC1 [Example 249, 1-{4-[4-(1-Methyl-1H-indazol-6-yl)-phenoxy]-piperidin-1-yl}-propan-1-one, TFA salt]
IC50 [1]: 100 to 999 nM

O=C([C@H]1CCCO1)N1CCC(Oc2ccc(-c3ccc4c(C5CC5)nccc4c3)cc2)CC1 [Example 440, {4-[4-(1-Cyclopropylisoquinolin-6-yl)-phenoxy]-piperidin-1-yl}-(R)-tetrahydrofuran-2-yl-methanone]
IC50 [1]: 1 to 99 nM

Cc1c(-c2ccc(OC3CCN(C(=O)NO)CC3)cc2)ccc2nccn12 [Example 613, 4-[4-(5-Methylimidazo[1,2-a]pyridin-6-yl)phenoxy]piperidine-1-carbohydroxamic acid]
IC50 [2]: 1000 to 10000 nM
